Measurements taken from publication PMC7301841, “LuxR Solos in the Plant Endophyte Kosakonia sp. Strain KO348” (Applied and Environmental Microbiology, 2020).

molecular target: T1, LoxR (Kosakonia pseudosacchari, UniProt A0ABX4IX59); test: co-purification of complex (Ni-NTA, gel filtration), LC-MS/MS detection of coeluting AHL; ligand-dependent solubility; format: binding; conditions: expressed with 10 uM AHL, 16°C; pH 8.5
T1 construct: gene BK796_01250; full-length, His6-tagged (pET22b NdeI/XhoI, tag at C-terminus by vector), E. coli BL21(DE3) pLysS; forward primer encodes N-terminus MQDTEFFT
T1 sequence (A0ABX4IX59 entry or part of it): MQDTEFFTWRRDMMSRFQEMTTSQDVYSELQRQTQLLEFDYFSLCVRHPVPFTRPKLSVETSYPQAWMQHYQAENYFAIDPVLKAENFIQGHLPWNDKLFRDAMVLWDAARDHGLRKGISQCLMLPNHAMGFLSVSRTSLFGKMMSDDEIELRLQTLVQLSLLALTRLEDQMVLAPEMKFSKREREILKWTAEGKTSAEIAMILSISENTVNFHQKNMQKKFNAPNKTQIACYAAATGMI

| Compound | co-purification of complex (Ni-NTA, gel filtration), LC-MS/MS detection of coelu |
| --- | --- |
| CCCCCC(=O)N[C@H]1CCOC1=O [C6-HSL] | It was therefore concluded that AHLs solubilize and bind to LoxR. |
| CCCCCCCCCC(=O)CC(=O)N[C@H]1CCOC1=O [OC12-HSL] | OC12-HSL was also able to solubilize LoxR (data not shown) |

molecular target: T1, LoxR; test: ligand-dependent solubility on expression in E. coli (total extract vs soluble fraction); format: cell-based; conditions: expressed in E. coli in presence of AHL, 0.2 mM IPTG, 37°C overnight

| Compound | ligand-dependent solubility on expression in E. coli (total extract vs soluble f) |
| --- | --- |
| CCCCCC(=O)CC(=O)N[C@H]1CCOC1=O [OC8-HSL] | LoxR was soluble when bound and insoluble when unbound to AHLs |
| CCCC(=O)CC(=O)N[C@H]1CCOC1=O [OC6-HSL] | LoxR was soluble when bound and insoluble when unbound to AHLs |
| CCCC(O)CC(=O)N[C@H]1CCOC1=O (stereo partly drawn) [OHC6-HSL] | LoxR was soluble when bound and insoluble when unbound to AHLs |
| CCCCCCCCCC(=O)N[C@H]1CCOC1=O [C10-HSL] | LoxR was soluble when bound and insoluble when unbound to AHLs |
